Results: PubChem BioAssay (NCI)
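Interpolation was linear, between the two tested concentrations surrounding the appropriate level; five concentrations were tested over 48 hours in 96-well plates. At the GI50, growth is halved. The concentration for full growth arrest is given as TGI.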

How the values were obtained:
Test in all cases: DTP human tumour cell line panel, 48 h
[1] = system: A549 NSCLC
[2] = system: HS 578T breast
[3] = system: M14 melanoma
[4] = system: MOLT-4 leukemia
[5] = system: OVCAR-5 ovarian
[6] = system: SF-295 CNS
[7] = system: SK-OV-3 ovarian
[8] = system: SN12C renal
[9] = system: SNB-75 CNS
[10] = system: HOP-92 NSCLC

SMILES	GI50 [1]	TGI [1]	GI50 [2]	TGI [2]	GI50 [3]	TGI [3]	GI50 [4]	TGI [4]	GI50 [5]	TGI [5]	GI50 [6]	TGI [6]	GI50 [7]	TGI [7]	GI50 [8]	TGI [8]	GI50 [9]	TGI [9]	GI50 [10]	TGI [10]
COc1ccc(-c2nc(-c3ccccc3)c(-c3ccccc3)[nH]2)cc1OC1CCCC1	> 100 µM	> 100 µM	> 100 µM	> 100 µM	> 100 µM	> 100 µM	71.2 µM	> 100 µM	> 100 µM	> 100 µM	49.8 µM	> 100 µM	> 100 µM	> 100 µM	> 100 µM	> 100 µM	> 100 µM	> 100 µM	–	–
COC(=O)/C(=N\NC(=O)C[N+](C)(C)C)C(C(=O)OC)C(=O)C(=O)Nc1ccccc1C(N)=O (stereo not drawn)	–	> 100 µM	–	–	–	> 100 µM	–	> 100 µM	–	> 100 µM	–	> 100 µM	–	> 100 µM	–	> 100 µM	–	> 100 µM	–	–
C1COCCN1.C1COCCN1.NC1CCCCC1N.[Cl-].[Pt+2] (stereo not drawn)	> 100 µM	> 100 µM	–	–	> 100 µM	> 100 µM	> 100 µM	> 100 µM	> 100 µM	> 100 µM	> 100 µM	> 100 µM	> 100 µM	> 100 µM	> 100 µM	> 100 µM	> 100 µM	> 100 µM	> 100 µM	> 100 µM
CN1c2ccccc2N(C(=O)c2ccc(Cl)cc2)C(CC(=O)O)c2cccn21 (stereo not drawn)	–	> 100 µM	–	–	–	> 100 µM	–	> 100 µM	–	> 100 µM	–	> 100 µM	–	> 100 µM	–	> 100 µM	–	> 100 µM	–	> 100 µM
Cc1oc2c(C)c3oc(=O)cc(C)c3cc2c1CN1C(=O)C2OCCOCCOCCOCCOCCO[C@H]2C1=O (stereo partly drawn)	–	> 100 µM	–	–	–	> 100 µM	–	> 100 µM	–	> 100 µM	–	> 100 µM	–	> 100 µM	–	> 100 µM	–	> 100 µM	–	> 100 µM
CN(C)CCNC(=O)c1cc([N+](=O)[O-])cc2c1Oc1ccccc1O2	–	> 100 µM	–	99.8 µM	–	> 100 µM	–	51.1 µM	–	> 100 µM	–	> 100 µM	–	–	–	> 100 µM	–	38.9 µM	–	–
CCN(CC)CCOc1ccc(CCc2cc(OC)c(OC)c(OC)c2)cc1	–	> 100 µM	–	–	–	34.3 µM	–	85.2 µM	–	65.3 µM	–	50.5 µM	–	–	–	> 100 µM	–	94.5 µM	–	82.6 µM
